Measurements taken from ChEMBL document CHEMBL1201862, “PubChem BioAssay data set” (2004).
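All cell lines were grown in 96-well plates and treated with compound for 48 hours. GI50 is the concentration that inhibits growth by half.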 Activity calls are given as the source filed them. No stated cut-off is given here; in the data, active = GI50 up to about 1.1 µM and inactive = higher.

Tests used:
Assay in all cases: DTP human tumour cell line panel, 48 h
[1] = tested on: ACHN
[2] = tested on: OVCAR-3
[3] = tested on: KM12
[4] = tested on: LOX IMVI
[5] = tested on: HCC 2998
[6] = tested on: SN12C
[7] = tested on: M14
[8] = tested on: SF-295
[9] = tested on: HL-60
[10] = tested on: SK-OV-3
[11] = tested on: SR
[12] = tested on: SW-620
[13] = tested on: UACC-257
[14] = tested on: NCI-H23
[15] = tested on: IGROV-1
[16] = tested on: NCI-H522
[17] = tested on: COLO 205

Measured: GI50

COc1ccc(OC)c(NC(=O)C(=O)NNC(=O)c2sc(NNC(C)=O)nc2C)c1
inactive: [1] 29.2 µM | [2] 21.8 µM | [3] 39.4 µM | [4] 26.2 µM | [5] 45.1 µM | [6] 33 µM | [7] 50.9 µM | [8] 32 µM | [9] 36.2 µM | [10] 57.7 µM | [11] 32.1 µM | [12] 22.6 µM | [13] 23.6 µM | [14] 21.8 µM | [15] 53.5 µM | [16] 18.2 µM

CCOC(=O)c1cc2c(OCc3ccccc3)c(OC)cc3c2c(n1)N(c1ccc(OC)cc1)C(C)C3 (centres undefined)
inactive: [1] > 50 µM | [2] 23.2 µM | [4] > 50 µM | [5] 44.4 µM | [6] > 50 µM | [7] > 50 µM | [8] > 50 µM | [9] 45.6 µM | [10] > 50 µM | [11] > 50 µM | [12] > 50 µM | [17] > 50 µM | [14] > 50 µM | [15] > 50 µM | [16] 25.2 µM

COc1ccccc1NC(=O)C1=C(C)NC(C)=C(C(=O)Nc2ccccc2OC)C1/C=C/c1ccccc1
inactive: [1] 90.8 µM | [2] > 100 µM | [3] > 100 µM | [4] > 100 µM | [5] > 100 µM | [6] > 100 µM | [7] > 100 µM | [8] > 100 µM | [9] 60.1 µM | [10] > 100 µM | [11] 51.8 µM | [12] > 100 µM | [17] > 100 µM | [13] > 100 µM | [14] > 100 µM | [15] > 100 µM

COCCN1C2=CCCCC2=Nc2c(N)nc(N)nc21
inactive: [1] > 100 µM | [2] 38 µM | [3] > 100 µM | [4] > 100 µM | [5] > 100 µM | [6] > 100 µM | [7] > 100 µM | [8] > 100 µM | [9] > 100 µM | [10] > 100 µM | [11] > 100 µM | [17] > 100 µM | [13] > 100 µM | [14] > 100 µM | [15] > 100 µM | [16] > 100 µM

CC#CC1C2CCCC1(CSc1ccccc1)NC(=O)O2 (centres undefined)
inactive: [1] > 100 µM | [2] > 100 µM | [3] > 100 µM | [5] > 100 µM | [6] > 100 µM | [7] > 100 µM | [8] > 100 µM | [9] > 100 µM | [10] > 100 µM | [11] > 100 µM | [12] > 100 µM | [17] > 100 µM | [13] > 100 µM | [14] > 100 µM | [15] > 100 µM | [16] > 100 µM
